Laboratory results reported in US20250179073A1, “TRICYCLIC HETEROCYCLE COMPOUNDS AS IAP ANTAGONISTS” (Ascentage Pharma (Suzhou) Co., Ltd., priority 2022, published 2025).

Tested on: MDA-MB-231 cells
Assay: Cell proliferation assay (CellTiter-Glo), MDA-MB-231
Type: cell-based
Settings: 72 h treatment, Celltiter-Glo luminescence
Procedure, shortened: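 MDA-MB-231 (RPMI-1640/10% FBS) and EVSA-T (MEM/10% FBS) cells, 10000 cells/well, exposed 72 h to compound at […]. Viability read by CellTiter-Glo luminescence after 15 min at room temperature. IC50 from control-normalised curve fitting.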

| IC50 | SMILES |
| --- | --- |
| 530 nM | C[C@@H]1CN(CC(=O)N2CC(C)(C)c3c2cc(Cc2ccc(F)cc2)c2nc(N4C[C@@H](O)[C@H](O)C4)nn32)[C@@H](CN2CCOC[C@H]2C)CN1 [Compound 226, 1-(2-((3R,4R)-3,4-dihydroxypyrrolidin-1-yl)-4-(4-fluorobenzyl)-8,8-dimethyl-7,8-dihydro-6H-pyrrolo[2,3-e][1,2,4]triazolo[1,5-a]pyridin-6-yl)-2-((2R,5R)-5-methyl-2-(((R)-3-methylmorpholino)methyl)piperazin-1-yl)ethan-1-one] |

Same assay, conditions: Homo sapiens, MDA-MB-231, 72 h, 72 h treatment, Celltiter-Glo luminescence

| IC50 | SMILES |
| --- | --- |
| 330 nM | C[C@@H]1CN(CC(=O)N2CC(C)(C)c3c2cc(Cc2ccc(F)cc2)c2nn(Cc4ncn(C)n4)c(=O)n32)[C@@H](CN2CCOC[C@H]2C)CN1 [Compound 232, 4-(4-fluorobenzyl)-8,8-dimethyl-2-((1-methyl-1H-1,2,4-triazol-3-yl)methyl)-6-(2-((2R,5R)-5-methyl-2-(((R)-3-methylmorpholino)methyl)piperazin-1-yl)acetyl)-2,6,7,8-tetrahydro-1H-pyrrolo[2,3-e][1,2,4]triazolo[4,3-a]pyridin-1-one] |
| 260 nM | C[C@@H]1CN(CC(=O)N2CC(C)(C)c3c2cc(Cc2ccc(F)cc2)c2nn(C[C@@H]4COCCO4)c(=O)n32)[C@@H](CN2CCOC[C@H]2C)CN1 [Compound 233, 2-(((R)-1,4-dioxan-2-yl)methyl)-4-(4-fluorobenzyl)-8,8-di methyl-6-(2-((2R,5R)-5-methyl-2-(((R)-3-methylmorpholino)methyl)piperazin-1-yl)acetyl)-2,6,7,8-tetrahydro-1H-pyrrolo[2,3-e][1,2,4]triazolo[4,3-a]pyridin-1-one] |
| 47 nM | C[C@@H]1CN(CC(=O)N2CC(C)(C)c3c2cc(Cc2ccc(F)cc2)c2nc(N4CCNC4=O)nn32)[C@@H](CN2CCOC[C@H]2C)CN1 [Compound 248, 1-(4-(4-fluorobenzyl)-8,8-dimethyl-6-(2-((2R,5R)-5-methyl-2-(((R)-3-methylmorpholino)methyl)piperazin-1-yl)acetyl)-7,8-dihydro-6H-pyrrolo[2,3-e][1,2,4]triazolo[1,5-a]pyridin-2-yl)imidazolidin-2-one] |
| 41 nM | C[C@@H]1CN(CC(=O)N2CC(C)(C)c3c2cc(Cc2ccc(F)cc2)c2nn(C4CNC4)c(=O)n32)[C@@H](CN2CCOC[C@H]2C)CN1 [Compound 249, 2-(azetidin-3-yl)-4-(4-fluorobenzyl)-8,8-dimethyl-6-(2-((2R,5R)-5-methyl-2-(((R)-3-methylmorpholino)methyl)piperazin-1-yl)acetyl)-2,6,7,8-tetrahydro-1H-pyrrolo[2,3-e][1,2,4]triazolo[4,3-a]pyridin-1-one] |
| 230 nM | C[C@@H]1CN(CC(=O)N2CC(C)(C)c3c2cc(Cc2ccc(F)cc2)c2nn(Cc4cccnn4)c(=O)n32)[C@@H](CN2CCOC[C@H]2C)CN1 [Compound 253, 4-(4-fluorobenzyl)-8,8-dimethyl-6-(2-((2R,5R)-5-methyl-2-(((R)-3-methylmorpholino)methyl)piperazin-1-yl)acetyl)-2-(pyridazin-3-ylmethyl)-2,6,7,8-tetrahydro-1H-pyrrolo[2,3-e][1,2,4]triazolo[4,3-a]pyridin-1-one] |
| 580 nM | CNC(=O)c1nc2c(Cc3ccc(F)cc3)cc3c(n2n1)C(C)(C)CN3C(=O)CN1C[C@@H](C)NC[C@@H]1CN1CCOC[C@H]1C [Compound 255, 4-(4-fluorobenzyl)-N,8,8-trimethyl-6-(2-((2R,5R)-5-methyl-2-(((R)-3-methylmorpholino)methyl)piperazin-1-yl)acetyl)-7,8-dihydro-6H-pyrrolo[2,3-e][1,2,4]triazolo[1,5-a]pyridine-2-carboxamide] |
| 195 nM | [2H]C([2H])([2H])NC(=O)c1nc2c(Cc3ccc(F)cc3)cc3c(n2n1)C(C)(C)CN3C(=O)CN1C[C@@H](C)NC[C@@H]1CN1CCOC[C@H]1C [Compound 258, 4-(4-fluorobenzyl)-8,8-dimethyl-N-(methyl-d3)-6-(2-((2R,5R)-5-methyl-2-(((R)-3-methylmorpholino)methyl)piperazin-1-yl)acetyl)-7,8-dihydro-6H-pyrrolo[2,3-e][1,2,4]triazolo[1,5-a]pyridine-2-carboxamide] |
| 350 nM | C[C@@H]1CN(CC(=O)N2CC(C)(C)c3c2cc(Cc2ccc(F)cc2)c2nn(C(CO)CO)c(=O)n32)[C@@H](CN2CCOC[C@H]2C)CN1 [Compound 268, 2-(1,3-dihydroxypropan-2-yl)-4-(4-fluorobenzyl)-8,8-dimethyl-6-(2-((2R,5R)-5-methyl-2-(((R)-3-methylmorpholino)methyl)piperazin-1-yl)acetyl)-2,6,7,8-tetrahydro-1H-pyrrolo[2,3-e][1,2,4]triazolo[4,3-a]pyridin-1-one] |
| 9 nM | C[C@@H]1CN(CC(=O)N2CC(C)(C)c3c2cc(Cc2ccc(F)cc2F)c2nn(CC(C)(C)O)c(=O)n32)[C@@H](CN2CCOC[C@H]2C)CN1 [Compound 274, 4-(2,4-difluorobenzyl)-2-(2-hydroxy-2-methylpropyl)-8,8-dimethyl-6-(2-((2R,5R)-5-methyl-2-(((R)-3-methylmorpholino)methyl)piperazin-1-yl)acetyl)-2,6,7,8-tetrahydro-1H-pyrrolo[2,3-e][1,2,4]triazolo[4,3-a]pyridin-1-one] |
| 67 nM | C[C@@H]1CN(CC(=O)N2CC(C)(C)c3c2cc(Cc2ccc(F)cc2)c2nn(CC(C)(C)O)c(=O)n32)[C@@H](CN2CCOCC2(C)C)CN1 [Compound 277, 6-(2-((2R,5R)-2-((3,3-dimethylmorpholino)methyl)-5-methylpiperazin-1-yl)acetyl)-4-(4-fluorobenzyl)-2-(2-hydroxy-2-methylpropyl)-8,8-dimethyl-2,6,7,8-tetrahydro-1H-pyrrolo[2,3-e][1,2,4]triazolo[4,3-a]pyridin-1-one] |
| 68 nM | COC(=O)N1CCN(C[C@H]2CN[C@H](C)CN2CC(=O)N2CC(C)(C)c3c2cc(Cc2ccc(F)cc2)c2nn(CC(C)(C)O)c(=O)n32)[C@H](C)C1 [Compound 280, methyl (R)-4-(((2R,5R)-1-(2-(4-(4-fluorobenzyl)-2-(2-hydroxy-2-methylpropyl)-8,8-dimethyl-1-oxo-1,2,7,8-tetrahydro-6H-pyrrolo[2,3-e][1,2,4]triazolo[4,3-a]pyridin-6-yl)-2-oxoethyl)-5-methylpiperazin-2-yl)methyl)-3-methylpiperazine-1-carboxylate] |
| 26 nM | C[C@@H]1CN(CC(=O)N2CC(C)(C)c3c2cc(Cc2ccc(F)cc2)c2nn(CC(C)(C)O)c(=O)n32)[C@@H](CN2CCC(F)(F)C[C@H]2C)CN1 [Compound 281, 6-(2-((2R,5R)-2-(((R)-4,4-difluoro-2-methylpiperidin-1-yl)methyl)-5-methylpiperazin-1-yl)acetyl)-4-(4-fluorobenzyl)-2-(2-hydroxy-2-methylpropyl)-8,8-dimethyl-2,6,7,8-tetrahydro-1H-pyrrolo[2,3-e][1,2,4]triazolo[4,3-a]pyridin-1-one] |
| 660 nM | CC(=O)N1CCN(C[C@H]2CN[C@H](C)CN2CC(=O)N2CC(C)(C)c3c2cc(Cc2ccc(F)cc2)c2nn(CC(C)(C)O)c(=O)n32)[C@H](C)C1 [Compound 282, 6-(2-((2R,5R)-2-(((R)-4-acetyl-2-methylpiperazin-1-yl)methyl)-5-methylpiperazin-1-yl)acetyl)-4-(4-fluorobenzyl)-2-(2-hydroxy-2-methylpropyl)-8,8-dimethyl-2,6,7,8-tetrahydro-1H-pyrrolo[2,3-e][1,2,4]triazolo[4,3-a]pyridin-1-one] |
| 360 nM | C[C@@H]1CN(CC(=O)N2CC(C)(C)c3c2cc(Cc2ccc(F)cc2)c2nn(CC(C)(C)O)c(=O)n32)[C@@H](CN2C[C@@H]3C[C@H]2CO3)CN1 [Compound 283, 6-(2-((2R,5R)-2-(((1S,4S)-2-oxa-5-azabicyclo[2.2.1]heptan-5-yl)methyl)-5-methylpiperazin-1-yl)acetyl)-4-(4-fluorobenzyl)-2-(2-hydroxy-2-methylpropyl)-8,8-dimethyl-2,6,7,8-tetrahydro-1H-pyrrolo[2,3-e][1,2,4]triazolo[4,3-a]pyridin-1-one] |
| 250 nM | C[C@@H]1CN(CC(=O)N2CC(C)(C)c3c2cc(Cc2ccc(F)cc2)c2nn(CC(C)(C)O)c(=O)n32)[C@@H](CN2C[C@H]3C[C@@H]2CO3)CN1 [Compound 284, 6-(2-((2R,5R)-2-(((1R,4R)-2-oxa-5-azabicyclo[2.2.1]heptan-5-yl)methyl)-5-methylpiperazin-1-yl)acetyl)-4-(4-fluorobenzyl)-2-(2-hydroxy-2-methylpropyl)-8,8-dimethyl-2,6,7,8-tetrahydro-1H-pyrrolo[2,3-e][1,2,4]triazolo[4,3-a]pyridin-1-one] |
| 480 nM | C[C@@H]1CN(CC(=O)N2CC(C)(C)c3c2cc(Cc2ccc(F)cc2)c2nn(CC(C)(C)O)c(=O)n32)[C@@H](CN2CC3CCC2CO3)CN1 (stereo partly drawn) [Compound 287, 6-(2-((2R,5R)-2-((2-oxa-5-azabicyclo[2.2.2]octan-5-yl)methyl)-5-methylpiperazin-1-yl)acetyl)-4-(4-fluorobenzyl)-2-(2-hydroxy-2-methylpropyl)-8,8-dimethyl-2,6,7,8-tetrahydro-1H-pyrrolo[2,3-e][1,2,4]triazolo[4,3-a]pyridin-1-one] |

| SMILES | IC50 |
| --- | --- |
| C[C@@H]1CN(CC(=O)N2CC(C)(C)c3c2cc(Cc2ccc(F)cc2)c2nn(CC(C)(C)O)c(=O)n32)[C@@H](CN2C3CCC2COC3)CN1 [Compound 276, 6-(2-((2R,5R)-2-((3-oxa-8-azabicyclo[3.2.1]octan-8-yl)methyl)-5-methylpiperazin-1-yl)acetyl)-4-(4-fluorobenzyl)-2-(2-hydroxy-2-methylpropyl)-8,8-dimethyl-2,6,7,8-tetrahydro-1H-pyrrolo[2,3-e][1,2,4]triazolo[4,3-a]pyridin-1-one] | 390 nM |
| C[C@@H]1CN(CC(=O)N2CC(C)(C)c3c2cc(Cc2ccc(F)cc2)c2nn(CC(C)(C)O)c(=O)n32)[C@@H](CN2CC3CC(C2)O3)CN1 [Compound 286, 6-(2-((2R,5R)-2-((6-oxa-3-azabicyclo[3.1.1]heptan-3-yl)methyl)-5-methylpiperazin-1-yl)acetyl)-4-(4-fluorobenzyl)-2-(2-hydroxy-2-methylpropyl)-8,8-dimethyl-2,6,7,8-tetrahydro-1H-pyrrolo[2,3-e][1,2,4]triazolo[4,3-a]pyridin-1-one] | 270 nM |
